Assay results from patent US20010014444A1, “Gene regulator fusion proteins and methods of using the same for determining resistance of a protein to a drug targeted thereagainst” (priority 1998, published 2001).

Assays:
[1] = tested on: inactive HIV protease (164) [D25E] (pL448.2); test: Blue/white colony color assay, HIV-PR-LacI fusion protein / β-galactosidase reporter two plasmid system; type: cell-based; conditions: E. coli containing pL448.2; Bluogal indicator media with arabinose inducer, supplemented with indinavir at various concentrations; also blue without indinavir
Experimental: Three E. coli strains, each containing a reporter plasmid for expression of β-galactosidase, and a HIV-PR-LacI expression plasmid for expression of a HIV-PR-LacI fusion protein, were tested using the blue/white color assay of the present invention. These strains were designed to be identical except for mutations within the HIV-PR regions, as set forth below:
Plasmid pL446.1 expresses a fusion protein containing HIV-PR and the LacI gene repressor. Expression is mediated by the ARAB promoter/operator and expression is induced by addition of arabinose sugar to the growth medium.
Media plates were prepared by adding to standard Luria Broth Agar, per liter of Luria Broth Agar, 2,000 μl of 100 mg/ml Ampicillin, 800 μl of 34 mg/ml Chloramrphenicol, 1 ml 1M IPTG. Similarly, indicator media was prepared by adding Bluogal (Life Technologies Inc.) to the media, 16.8 ml Bluogal stock (2% in dimethyl formamide) per liter of Luria Broth Agar. […] The E. coli strains were then plated onto the indicator media and allowed to grow for about 16 hours.

[2] = tested on: HIV-PR variants expressing the resistance-conferring mutations V82T or I84V; test: Colony color assay with site directed HIV-PR variants of known genotype; type: cell-based; conditions: plate with indinavir (MK-639) and Bluogal; only colonies with V82T or I84V variants were white; whiter with V82T and I84V than with V82T
Experimental: Site directed mutagensis was used to construct HIV-PR gene variants encoding the mutations 1) [D25E] […] These variant genes were put into fusion protein expression plasmids in the manner set forth in Example 1, and the resulting fusion protein expression plasmids and a β-galactosidase reporter plasmid expression were subcloned into E. coli, which were then plated on indicator media designed to report E. coli having HIV-PR activity as white colonies and E. coli without HIV-PR activity as blue colonies.
In the method of the present invention, β-galactosidase activity is regulated indirectly by activity of the HIV-PR in the fusion protein expression plasmid. All the E. coli cells used were identical and expressed similar HIV-PR-LacI fusion proteins, except that the HIV-PR genotype is different for different colonies.

For `CC(C)(C)NC(=O)[C@@H]1CN(Cc2cccnc2)CCN1C[C@@H](O)C[C@@H](Cc1ccccc1)C(=O)N[C@H]1c2ccccc2C[C@H]1O` [indinavir], the “color of E. coli colonies on indicator media” value [1] was “blue” and the “color of E. coli colonies on plate with indinavir and color indicator” value [2] was “white”.
